Assay results reported in patent publication US6797500B2, “Genes involved in cyclododecanone degradation pathway” (E. I. du Pont de Nemours and Company, priority 1999, dated 2004).

Key:
[1] = system: monooxygenase and esterase on the S8C; assay: Production of different chain length hydroxy acids from cyclic ketones by recombinant E. coli cosmid clone S8C (GC/MS); type: cell-based, Escherichia coli; details: cyclic ketone substrate 250 mg/L
Procedure: Transformed XL1-Blue MR cells were grown in M9 medium with 0.4% glucose as sole carbon source. Substrate for conversion was added at early log phase (OD=0.2) and cells were allowed to grow at 30° C. for 20 additional hours. Cells were then frozen and thawed once, centrifuged, and supernatant was filtered through 0.2 μm filters. Filtrate was prepared for GC/MS analysis as described below.
Filtrate was first acidified to pH 2 using concentrated HCl. The acidified sample was extracted twice with methylene chloride or ethyl acetate. The extracts were combined and dried by adding anhydrous magnesium sulfate. Magnesium sulfate was then removed by filteration using Whatman 3MM filter paper and the remaining solvent in the filtrate was evaporated under a gentle stream of nitrogen. The dried residues were resuspended in 0.5 mL of methylene chloride as underivatized samples or derivatized with 0.5 mL of BSTFA [bis (trimethylsilyl) trifluoroacetamide] silylation reagent (SUPELCO, Bellefonte, Pa.). The GC/MS analysis was performed using a Hewlett Packard 5989B MS Engine GC/MS instrument. Samples were injected onto a 30 meter MDN-5S capillary column (SUPELCO, 0.5 μm film thickness) for separation. GC/MS analysis was conducted using electron impact ionization (70 eV).
Example 8 explores whether the cyclic substrates could be expanded to cyclic ketones of different chain length and whether corresponding hydroxy acids could be produced. S8C was grown as described above except that different cyclic ketones were added. Cyclohexanone (C6), cycloheptanone (C7), cyclooctanone (C8), cyclodecanone (C10), cycloundecanone (C11), cyclododecanone (C12), cyclotridecanone (C13) and cyclopentadecanone (C15) were added as substrates at 250 mg/L concentration. Identification of the corresponding hydroxy acids produced was performed by GC/MS analysis as described above. Large amount of corresponding hydroxy acids were detected from S8C grown in the presence of C11, C12 and C13 cyclic ketones. Medium level of 15-hydroxy acid was detected from C15 cyclic ketone grown cells. Small amount of hydroxy acids was detected from cells grown on C6 and C10 cyclic ketones. […] The substrate range of the monooxygenase and esterase on the S8C appeared to favor long chain cyclic ketones (C>10). This correlated well with the growth substrate range ([…]) of the Rhodococcus ruber SC1. The ability of Rhodococcus ruber SC1 to grow on cyclic ketones of C11-C15 was likely due to the relatively broad substrate specificity of the single set of monooxygenase and esterase encoded on S8C clone (Table 3). It is possible that mixture of the large cyclic ketones may be used as substrates in a biotransformation to produce a mixture of long chain hydroxy acids or diacids for certain applications.

[2] = system: Rhodococcus ruber SC1; assay: Growth of Rhodococcus ruber SC1 on cyclic ketones as sole carbon and energy source; type: cell-based; details: for Growth of Rhodococcus ruber SC1: cyclic ketone as sole carbon and energy source
Procedure: Synthetic S12 medium was used to establish enrichment. S12 medium contains the following: 10 mM ammonium sulfate, 50 mM potassium phosphate buffer (pH 7.0), 2 mM MgCl2, 0.7 mM CaCl2, 50 μM MnCl2, 1 μM FeCl3, 1 μM […], 1.72 μM CuSO4, 2.53 μM CoCl2, 2.42 μM […], and 0.0001% FeSO4. The carbon sources were added directly to the S12 medium and the bacteria were grown in sealed culture flasks.
S12 agar was used to test isolates that utilize compounds as the sole source of carbon and energy. S12 agar was prepared by adding 1.5% Noble agar (DIFCO) to S12 medium. Bacteria growing on S12 agar were supplied with volatile compounds such as cyclododecanone by sprinkling solids of the volatile compound on the interior of the petri dish lid or 5 μl of other volatile liquid as vapor. The petri dish was sealed with parafilm and incubated with the lid on the bottom.
Rhodococcus ruber SC1 isolated from cyclododecanone (C12 cyclic ketone) enrichment culture was also tested for growth on cyclic ketones of different carbon numbers as sole carbon and energy source (Table 3). It grows well on cyclopentadecanone (C15 cyclic ketone), cyclotridecanone (C13 cyclic ketone), cyclododecanone (C12 cyclic ketone) and cycloundecanone (C11 cyclic ketone).

Row | Compound | Corresponding Hydroxy Acid Produced by E. coli Cosmids [1] | Corresponding hydroxy acid detected (in words) [1] | Growth of Rhodococcus ruber SC1 on cyclic ketone (in words) [2] | Growth of Rhodococcus ruber SC1 [2]
1 | O=C1CCCCC1 [C6, cyclohexanone] | +/− | Small amount | does not grow | −
2 | O=C1CCCCCC1 [C7, cycloheptanone] | − | No hydroxy acid was detected | does not grow | −
3 | O=C1CCCCCCC1 [C8, cyclooctanone] | − | No hydroxy acid was detected | does not grow | −
4 | O=C1CCCCCCCCC1 [C10, cyclodecanone] | +/− | Small amount | grows moderately well | +
5 | O=C1CCCCCCCCCC1 [C11, cycloundecanone] | ++ | Large amount | grows well | +
6 | O=C1CCCCCCCCCCC1 [C12, cyclododecanone] | ++ | Large amount | grows well | +
7 | O=C1CCCCCCCCCCCC1 [C13, cyclotridecanone] | ++ | Large amount | grows well | +
8 | O=C1CCCCCCCCCCCCCC1 [C15, cyclopentadecanone] | + | Medium level | grows well | +
